Results: ChEMBL document CHEMBL1201862, “PubChem BioAssay data set” (2004)
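Values below derive from 48-hour exposures of cells grown in 96-well plates, with endpoints linearly interpolated between the two concentrations bracketing the appropriate inhibition level. The concentration for 50% growth inhibition is given as GI50.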 Activity calls are given as the source filed them. No stated cut-off is given here; in the data, active = GI50 up to about 1.1 µM and inactive = higher.

Assays:
Test in all cases: inhibition of tumour cell growth, NCI panel, 48 h
[1] = tested on: SF-295
[2] = tested on: HCT-116
[3] = tested on: MDA-MB-435
[4] = tested on: OVCAR-8
[5] = tested on: SR
[6] = tested on: NCI-H460
[7] = tested on: UACC-257
[8] = tested on: SF-268
[9] = tested on: MOLT-4
[10] = tested on: EKVX
[11] = tested on: 786-0
[12] = tested on: NCI/ADR-RES
[13] = tested on: KM12
[14] = tested on: SN12C
[15] = tested on: COLO 205
[16] = tested on: PC-3
[17] = tested on: DU-145
[18] = tested on: SK-MEL-28
[19] = tested on: M14
[20] = tested on: HL-60

SMILES	GI50 [1]	GI50 [2]	GI50 [3]	GI50 [4]	GI50 [5]	GI50 [6]	GI50 [7]	GI50 [8]	GI50 [9]	GI50 [10]	GI50 [11]	GI50 [12]	GI50 [13]	GI50 [14]	GI50 [15]	GI50 [16]	GI50 [17]	GI50 [18]	GI50 [19]	GI50 [20]
Cc1ccc(C(=O)N/N=C(\N=N\c2ccc([N+](=O)[O-])cc2)c2ccc(N(CCC#N)CCC#N)cc2C)cc1	57.9 µM (inactive)	54.8 µM (inactive)	67.8 µM (inactive)	28.1 µM (inactive)	63.8 µM (inactive)	79.3 µM (inactive)	77.6 µM (inactive)	> 100 µM (inactive)	57.3 µM (inactive)	> 100 µM (inactive)	73.5 µM (inactive)	> 100 µM (inactive)	39.5 µM (inactive)	> 100 µM (inactive)	50 µM (inactive)	50.1 µM (inactive)	97.1 µM (inactive)	97.1 µM (inactive)	58.3 µM (inactive)	30.2 µM (inactive)
Cc1ccc([S+]([O-])c2cccs2)cc1 (stereo not given)	> 100 µM (inactive)	> 100 µM (inactive)	> 100 µM (inactive)	> 100 µM (inactive)	> 100 µM (inactive)	> 100 µM (inactive)	> 100 µM (inactive)	> 100 µM (inactive)	> 100 µM (inactive)	> 100 µM (inactive)	> 100 µM (inactive)	> 100 µM (inactive)	> 100 µM (inactive)	> 100 µM (inactive)	> 100 µM (inactive)	> 100 µM (inactive)	> 100 µM (inactive)	> 100 µM (inactive)	> 100 µM (inactive)	> 100 µM (inactive)
Cc1c(CCCl)c(N=[N+]=[N-])n2c(nc3ccccc32)c1C#N	1.67 µM (inactive)	0.498 µM (active)	1.43 µM (inactive)	1.7 µM (inactive)	0.311 µM (active)	1.39 µM (inactive)	1.6 µM (inactive)	2.22 µM (inactive)	0.249 µM (active)	1.87 µM (inactive)	0.601 µM (active)	1.69 µM (inactive)	1.66 µM (inactive)	1.71 µM (inactive)	1.07 µM (active)	1.42 µM (inactive)	2.24 µM (inactive)	1.58 µM (inactive)	1.25 µM (inactive)	0.348 µM (active)
Cn1cc(-c2ccc(CCOC3CCCCO3)cc2)c2c(C#N)cccc21 (stereo not given)	34.7 µM (inactive)	43.3 µM (inactive)	36.9 µM (inactive)	> 100 µM (inactive)	17.2 µM (inactive)	42.6 µM (inactive)	24.7 µM (inactive)	> 100 µM (inactive)	16.1 µM (inactive)	35.6 µM (inactive)	92.3 µM (inactive)	30.9 µM (inactive)	61.7 µM (inactive)	> 100 µM (inactive)	27 µM (inactive)	27.2 µM (inactive)	> 100 µM (inactive)	14.9 µM (inactive)	37.8 µM (inactive)	19.9 µM (inactive)
O=C(c1ccccc1)c1ccc(C(c2c(O)c3ccccc3oc2=O)c2c(O)c3ccccc3oc2=O)cc1	21.2 µM (inactive)	26.7 µM (inactive)	29.4 µM (inactive)	27 µM (inactive)	20.1 µM (inactive)	40.8 µM (inactive)	22.8 µM (inactive)	22.5 µM (inactive)	19.5 µM (inactive)	28 µM (inactive)	21.2 µM (inactive)	22.9 µM (inactive)	18.7 µM (inactive)	28.4 µM (inactive)	31.7 µM (inactive)	27 µM (inactive)	31.2 µM (inactive)	28.8 µM (inactive)	24.7 µM (inactive)	34.1 µM (inactive)
CCOC(CN(C)C(=S)Nc1cccc2ccccc12)OCC	> 10 µM (inactive)	> 10 µM (inactive)	> 10 µM (inactive)	> 10 µM (inactive)	> 10 µM (inactive)	> 10 µM (inactive)	> 10 µM (inactive)	> 10 µM (inactive)	> 10 µM (inactive)	> 10 µM (inactive)	> 10 µM (inactive)	> 10 µM (inactive)	> 10 µM (inactive)	> 10 µM (inactive)	> 10 µM (inactive)	> 10 µM (inactive)	> 10 µM (inactive)	> 10 µM (inactive)	> 10 µM (inactive)	> 10 µM (inactive)
CCCCOc1ccc(NC(=N)Nc2ccc(Cl)cc2)cc1	2.3 µM (inactive)	0.421 µM (active)	11.1 µM (inactive)	11.2 µM (inactive)	3.38 µM (inactive)	3.7 µM (inactive)	0.176 µM (active)	0.92 µM (active)	1.42 µM (inactive)	2.37 µM (inactive)	11.1 µM (inactive)	2.28 µM (inactive)	12.5 µM (inactive)	0.791 µM (active)	0.125 µM (active)	2.06 µM (inactive)	0.462 µM (active)	13.2 µM (inactive)	3.66 µM (inactive)	6.49 µM (inactive)
COC(=O)/C=C1/OC(c2ccc(C)cc2)=C(Cl)C1=O	19.8 µM (inactive)	11.7 µM (inactive)	17.8 µM (inactive)	16.9 µM (inactive)	0.489 µM (active)	22 µM (inactive)	20.3 µM (inactive)	16.4 µM (inactive)	4.23 µM (inactive)	21.3 µM (inactive)	13.9 µM (inactive)	22.1 µM (inactive)	14.6 µM (inactive)	17.9 µM (inactive)	11.2 µM (inactive)	13.8 µM (inactive)	17.7 µM (inactive)	16.7 µM (inactive)	18.1 µM (inactive)	3.31 µM (inactive)
CCC1c2[nH]c3ccccc3c2C[C@H]2C(=O)NC(COC(C)(C)C)C(=O)N12 (stereo not given in full)	19.4 µM (inactive)	41.6 µM (inactive)	37.7 µM (inactive)	39.4 µM (inactive)	31.3 µM (inactive)	31.2 µM (inactive)	25.2 µM (inactive)	67.3 µM (inactive)	31.4 µM (inactive)	45.2 µM (inactive)	61.2 µM (inactive)	40.7 µM (inactive)	27.9 µM (inactive)	45.5 µM (inactive)	19.7 µM (inactive)	28.5 µM (inactive)	67.6 µM (inactive)	86.3 µM (inactive)	30.1 µM (inactive)	21.3 µM (inactive)
[N-]=[N+]=CC(=O)COC(=O)c1ccccc1	> 100 µM (inactive)	> 100 µM (inactive)	> 100 µM (inactive)	> 100 µM (inactive)	74.6 µM (inactive)	> 100 µM (inactive)	> 100 µM (inactive)	> 100 µM (inactive)	> 100 µM (inactive)	> 100 µM (inactive)	> 100 µM (inactive)	> 100 µM (inactive)	> 100 µM (inactive)	> 100 µM (inactive)	> 100 µM (inactive)	> 100 µM (inactive)	> 100 µM (inactive)	> 100 µM (inactive)	> 100 µM (inactive)	> 100 µM (inactive)
